Results from patent US5985822A, “Inhibition of glial cell proliferation with N-CAM homophilic peptides” (The Scripps Research Institute, priority 1995, dated 1999).
Read-outs that look alike come from different tables or passages of the source.

System: rat forebrain astrocytes in primary culture
Experiment: Astrocyte proliferation assay ([3H]-thymidine incorporation normalized to [35S]-methionine)
Type: cell-based
Conditions: for effect of drug on the ability of N-CAM to inhibit astrocyte proliferation (in words): drug in the presence of N-CAM; for Drug Alone: means of triplicate (Table 5)
Description: Primary cultures of astrocytes were prepared from the forebrains of 4-5 day old neonatal rats. After decapitation and removal of the forebrains from the skull, the meninges were carefully peeled off, and forebrain tissue was triturated in sterile phosphate buffered saline (PBS) using firepolished pipettes. The resulting suspension of tissue fragments was incubated in Hank's balanced salt solution (Gibco BRL) with 2.5 mg/ml trypsin, 1 mM EDTA and 0.1 mg/ml DNase (Boehringer) at 37° C. for 15 minutes. […] The pellet was resuspended in serum free medium (SFM) consisting of Dulbecco's Modified Eagle Medium (D-MEM), 2 mM L-glutamine, 50 U/ml penicillin G sodium and 50 μg/ml streptomycin sulfate (all from Gibco BRL) supplemented by 10% (vol/vol) fetal bovine serum (FBS). The cells were transferred to a standard 100 mm tissue culture dish (Falcon) and incubated at 37° C. for 1-2 hours. After mild shaking, the supernatant containing unattached cells was transferred to a 100 mm collagen-coated dish. […] Cell samples were checked regularly for the expression of GFAP, a marker for astrocytes.
After cell attachment, the culture medium was exchanged for SFM. In antisense experiments, oligonucleotides were added at the same time (T=0). […] After another 12 hours (at T=60), [^3 H]-thymidine (New England Nuclear, 20 Ci/mmol) was added (0.38 μM, 10 μCi/ml). Following an additional 12 hours (T=72), the wells were drained, counts precipitated by ice-cold […] trichloroacetic acid, and the plates left to dry. Counts were solubilized overnight by adding 100 μl 1 N KOH to each well, neutralized with 100 μl 1 N HCl, transferred to liquid scintillation vials and counted in 3 ml of Beckman Ready Safe liquid scintillation cocktail on a Packard 1600 TR counter. […] In this paper, proliferation is expressed as [^3 H]-thymidine incorporation normalized to [35]-methionine incorporation and calculated as [^3 H] dpm/ [35] dpm.

calphostin C
effect of drug on astrocyte proliferation (in words): inhibits proliferation | [3H]-thymidine incorporation, Drug alone (drug 0.1 μM, 2×10^5 cells/ml): 111 ± 35 % SFM Ctrl | [3H]-thymidine incorporation, Drug alone (drug 0.5 μM, 2×10^5 cells/ml): 54 ± 35 % SFM Ctrl

Pertussis Toxin
effect of drug on astrocyte proliferation (in words): slightly inhibited astrocyte proliferation | [3H]-thymidine incorporation, Drug + N-CAM (drug 1 μg/ml plus N-CAM 2 μg/ml): 57 ± 13 % SFM Ctrl | [3H]-thymidine incorporation, Drug alone (drug 1 μg/ml, 2×10^5 cells/ml): 67 ± 13 % SFM Ctrl | [3H]-thymidine incorporation, Drug + N-CAM (drug .5 μg/ml plus N-CAM 2 μg/ml): 53 ± 9 % SFM Ctrl | [3H]-thymidine incorporation, Drug alone (drug .5 μg/ml, 2×10^5 cells/ml): 74 ± 20 % SFM Ctrl | effect of drug on the ability of N-CAM to inhibit astrocyte proliferation (in words): N-CAM was still able to inhibit proliferation

bFGF: basic fibroblast growth factor, Upstate Biotechnology Incorporated
proliferation as compared to cultures in SFM (20 ng/ml bFGF, n=12): 347±56%

CCCCC/C=C\C/C=C\C/C=C\C/C=C\CCCC(=O)O [Arachidonic Acid, arachidonic acid]
[3H]-thymidine incorporation, Drug + N-CAM (drug 10 μM plus N-CAM 2 μg/ml): 60 ± 12 % SFM Ctrl | [3H]-thymidine incorporation, Drug alone (drug 10 μM, 2×10^5 cells/ml): 107 ± 10 % SFM Ctrl | effect of drug on the ability of N-CAM to inhibit astrocyte proliferation (in words): had no effect on the ability of N-CAM to inhibit astrocyte proliferation

COC(=O)C=Cc1cc(O)ccc1O [Methyl 2,5-dihydroxycinnamate, methyl 2,5-dihydroxycinnamate]
Drug + Ig3 (drug 0.25 μg/ml plus Ig3 2 μg/ml (Table 5)): 59 % of SFM Control | Drug + N-CAM (drug 0.25 μg/ml plus N-CAM 2 μg/ml (Table 5)): 60 % of SFM Control | Drug Alone (drug 0.25 μg/ml, 2×10^5 cells/ml): 65 % of SFM Control

CCCCCCCCCCCCCC(=O)O[C@@H]1[C@@H](C)[C@@]2(O)[C@@H](C=C(CO)C[C@]3(O)C(=O)C(C)=C[C@@H]23)[C@@H]2C(C)(C)[C@]12OC(C)=O [PMA]
effect of drug on astrocyte proliferation (in words): strong mitogenic response | [3H]-thymidine incorporation, Drug alone (drug 10 nM, 2×10^5 cells/ml): 138 ± 16 % SFM Ctrl | [3H]-thymidine incorporation, Drug + N-CAM (drug 100 nM plus N-CAM 2 μg/ml): 228 % SFM Ctrl | [3H]-thymidine incorporation, Drug alone (drug 100 nM, 2×10^5 cells/ml): 268 ± 34 % SFM Ctrl

C=C[C@@]1(C)CC(=O)[C@]2(O)[C@@]3(C)[C@@H](O)CCC(C)(C)[C@@H]3[C@H](O)[C@H](OC(C)=O)[C@@]2(C)O1 [Forskolin, forskolin]
[3H]-thymidine incorporation, Drug alone (drug 1 μM, 2×10^5 cells/ml): 73 ± 2 % SFM Ctrl | [3H]-thymidine incorporation, Drug alone (drug 10 μM, 2×10^5 cells/ml): 32 ± 6 % SFM Ctrl | effect of drug on astrocyte proliferation (in words) (drug alone, astrocyte cultures): blocks proliferation of astrocytes in culture

mastoparan
effect of drug on astrocyte proliferation (in words): stimulated astrocyte proliferation | Drug + Ig3 (drug 50 μM plus Ig3 2 μg/ml (Table 5)): 192.5 % of SFM Control | [3H]-thymidine incorporation, Drug + N-CAM (drug 50 μM plus N-CAM 2 μg/ml (Table 4)): 205 ± 30 % SFM Ctrl | Drug + N-CAM (drug 50 μM plus N-CAM 2 μg/ml (Table 5)): 202.5 % of SFM Control | [3H]-thymidine incorporation, Drug alone (drug 50 μM, 2×10^5 cells/ml (Table 4)): 213 ± 47 % SFM Ctrl | Drug Alone (drug 50 μM, 2×10^5 cells/ml): 210 % of SFM Control | effect of drug on the ability of N-CAM to inhibit astrocyte proliferation (in words): not inhibited by the concentration of N-CAM used

C[C@]12O[C@H](C[C@]1(O)C(=O)O)n1c3ccccc3c3c4c(c5c6ccccc6n2c5c31)CNC4=O [K252b]
[3H]-thymidine incorporation, Drug + N-CAM (drug 100 nM plus N-CAM 2 μg/ml): 85 ± 5 % SFM Ctrl | [3H]-thymidine incorporation, Drug alone (drug 100 nM, 2×10^5 cells/ml): 98 ± 17 % SFM Ctrl | [3H]-thymidine incorporation, Drug + N-CAM (drug 200 nM plus N-CAM 2 μg/ml): 64 ± 1 % SFM Ctrl | [3H]-thymidine incorporation, Drug alone (drug 200 nM, 2×10^5 cells/ml): 78 ± 15 % SFM Ctrl | effect of drug on the ability of N-CAM to inhibit astrocyte proliferation (in words): allowed the astrocytes cells to grow normally

B1: N-CAM purified from embryonic chick brain: N-CAM purified from embryonic chick brain, which binds to rodent N-CAM (protein, UniProt P13590 20-1091, looked up)
Neural cell adhesion molecule …: LQVDIVPSQGEISVGESKFFLCQVAGEAKYKDISWFSPNGEKLTPNQQRISVVRNDDFSSTLTIYNANIDDAGIYKCVVSSVEEGDSEATVNVKIFQKLMFKNAPTPQEFKEGDDAVIVCDVVSSLPPTIIWKHKGRDVMLKKDVRFIVLSNNYLQIRGIKKTDEGTYRCEGRILARGEINFKDIQVIVNVPPSVRARQSTMNATANLSQSVTLACDADGFPEPTMTWTKDGEPIEQEDNEEKYSFNYDGSELIIKKVDKSDEAEYICIAENKAGEQDATIHLKVFAKPKITYVENKTAMELEDQITLTCEASGDPIPSITWKTSTRNISNEEKTLDGRIVVRSHARVSSLTLKEIQYTDAGEYVCTASNTIGQDSQAMYLEVQYAPKLQGPVAVYTWEGNQVNITCEVFAYPSAVISWFRDGQLLPSSNYSNIKIYNTPSASYLEVTPDSENDFGNYNCTAVNRIGQESSEFILVQADTPSSPSIDRVEPYSSTARVEFDEPEATGGVPILKYKAEWRALGEGEWHSRLYDAKEANVEGTITISGLKPETTYSVRLSAVNGKGVGEISLPSDFKTQPVREPSAPKLEGQMGEDGNSIKVNVIKQDDGGSPIRHYLIKYKAKHSSEWKPEIRLPSGIDHVMLKSLDWNAEYEVYVIAENQQGKSKPAHYAFRTSAQPTVIPASTSPTSGLGTAAIVGILIVIFVLLLVAVDVTCYFLNKCGLLMCIAVNLCGKSGPGAKGKDMEEGKAAFSKDESKEPIVEVRTEEERTPNHDGGKHTEPNETTPLTEPEHTADTAATVEDMLPSVTTGTTNSDTITETFATAQNSPTSETTTLTSSIAPPATAIPDSNAMSPGQATPAKAGASPVSPPPPSSTPKVAPLVDLSDTPSSAPATNNLSSSVLSNQGAVLSPSTVANMAETSKAAAGNKSAAPTPANLTSPPAPSEPKQEVSSTKSPEKEAAQPSTVKSPTETAKNPSNPKSEAASGGTTNPSQNEDFKMDEGTFKTPDIDLAKDVFAALGTTTPASVASGQARELASSTADSSVPAAPAKTEKTPVEDKSEVQATEIRHLQQK
effect on astrocyte proliferation (in words) (added to astrocyte cultures in SFM): also inhibited proliferation

B2: N-CAM treated with neuraminidase: purified N-CAM treated with neuraminidase to remove sialic acid (protein, UniProt P13596 20-858, looked up)
Neural cell adhesion molecule …: LQVDIVPSQGEISVGESKFFLCQVAGDAKDKDISWFSPNGEKLSPNQQRISVVWNDDDSSTLTIYNANIDDAGIYKCVVTAEDGTQSEATVNVKIFQKLMFKNAPTPQEFKEGEDAVIVCDVVSSLPPTIIWKHKGRDVILKKDVRFIVLSNNYLQIRGIKKTDEGTYRCEGRILARGEINFKDIQVIVNVPPTVQARQSIVNATANLGQSVTLVCDADGFPEPTMSWTKDGEPIENEEEDDEKHIFSDDSSELTIRNVDKNDEAEYVCIAENKAGEQDASIHLKVFAKPKITYVENQTAMELEEQVTLTCEASGDPIPSITWRTSTRNISSEEKASWTRPEKQETLDGHMVVRSHARVSSLTLKSIQYTDAGEYICTASNTIGQDSQSMYLEVQYAPKLQGPVAVYTWEGNQVNITCEVFAYPSATISWFRDGQLLPSSNYSNIKIYNTPSASYLEVTPDSENDFGNYNCTAVNRIGQESLEFILVQADTPSSPSIDRVEPYSSTAQVQFDEPEATGGVPILKYKAEWKSLGEEAWHSKWYDAKEANMEGIVTIMGLKPETRYAVRLAALNGKGLGEISAATEFKTQPVREPSAPKLEGQMGEDGNSIKVNLIKQDDGGSPIRHYLVKYRALASEWKPEIRLPSGSDHVMLKSLDWNAEYEVYVVAENQQGKSKAAHFVFRTSAQPTAIPANGSPTAGLSTGAIVGILIVIFVLLLVVMDITCYFLNKCGLLMCIAVNLCGKAGPGAKGKDMEEGKAAFSKDESKEPIVEVRTEEERTPNHDGGKHTEPNETTPLTEPEKGPVETKSEPQESEAKPAPTEVKTVPNEATQTKENESKA
modifications: desialylated by neuraminidase
notes: purified N-CAM treated with neuraminidase to remove sialic acid
[3H]-thymidine incorporation vs. SFM control (2 μg/ml, n=2): 24±4%
